Values quoted from earlier work in publication PMC11390321 (Cancer chemotherapy and pharmacology, 2024).

Details: tumor-bearing mice, orally administered; cited from earlier work

Compound: C[C@@H]1COCCN1c1cc(C2([S@](C)(=N)=O)CC2)nc(-c2cc[nH]c3nccc2-3)n1 [ceralasertib]
- bone marrow exposure relative to plasma: 4.60 fold
